Results as given in patent US11230549B2, “Quinolino-pyrrolidin-2-one derivative and application thereof” (MEDSHINE DISCOVERY INC., priority 2018, dated 2022).

What was measured:
[1] = tested on: human lung cancer H446 cell subcutaneous xenograft tumor; test: In vivo efficacy of ATM inhibitors and etoposide in H446 subcutaneous xenograft model; set-up: species or system female BALB/c nude mouse; settings: etoposide 15 mg/kg IP, ATM inhibitor 5 mg/kg PO; for Tumor volume (mm^3) / Tumor volume (mm^3) (Day 26): Mean ± SEM; for T/C (%) tumor proliferation rate / TGI (%) tumor growth inhibition rate: Day 26; for Tumor volume (mm^3) (Day 26): Day 26 after administration
Method: Evaluation of the in vivo efficacy of the test drug ATM inhibitor and etoposide in a BALB/c nude mouse model with human lung cancer H446 cell subcutaneous xenograft tumor via intraperitoneal or oral administration.
5% CO2 culture. Conventional digestion treatment with pancreatin-EDTA for passage was carried out twice a week. When the cell saturation was 80% to 90%, the cells were collected, counted and inoculated.
0.2 mL 5×10^6 of H446 cells (1:1 plus matrigel) were subcutaneously inoculated on the right back of each nude mouse. The grouping and administration were started when the average tumor volume reached 125 mm^3 (Table).
The experimental index was to investigate whether the tumor growth was inhibited, delayed or cured. Tumor diameter was measured twice a week with a vernier caliper. The calculation formula of tumor volume: V=0.5a×b^2, wherein a and b represented the long and short diameters of the tumor, respectively.
Tumor proliferation rate T/C (%): wherein T is the average tumor volume obtained from the last measurement (PG-D26) of the treatment group, and C is the average tumor volume obtained from the last measurement (PG-D26) of the control group.
Mean value and standard error (SEM) of the tumor volume of each group at each time point were included (specific data is shown in tables). […] The comparison between two groups was analyzed by T-test, and the comparison between three or more groups was analyzed by one-way ANOVA. If there was heterogeneity of variance, the Games-Howell test was applied. If there was homogeneity of variance, the Dunnet (2-sided) test was used for analysis.

[2] = molecular target: T1, Human-derived ATM kinase (Homo sapiens, UniProt Q13315); test: ATM enzyme activity test (HTRF, phosphorylation of GST-cMyc-p53); type: biochemical
T1 construct: Eurofins (contract laboratory that ran the test)
Method: (§1) The compounds of the present disclosure used for experiments are all prepared in-house, and their chemical names and structural formulas are shown in the preparation examples of each compound. The experimental tests were carried out by a UK company Eurofins, and the experimental results were provided by the company. The following experimental processes were also provided by the company.
(§2) Human-derived ATM kinase was incubated in a buffer solution containing 30 nM of GST-cMyc-p53 and Mg/ATP. The concentration of Mg/ATP was determined according to different needs. The reaction was initiated by adding a Mg/ATP complex. After incubating for about 30 minutes at room temperature, a stop solution containing EDTA was added to stop the reaction. Finally, for phosphorylated p53, a detection buffer containing a d2-labeled anti-GST monoclonal antibody and an europium-labeled phosphorylated Ser15 antibody was added. Then time-resolved fluorescence mode was used to read a detection disk, and a homogeneous time-resolved fluorescence (HTRF) signal was obtained by calculating formula HTRF=10000×(Em665 nm/Em620 nm).

[3] = molecular target: T2, Human-derived DNA-PK kinase (Homo sapiens, UniProt P78527); test: DNA-PK enzyme activity test (HTRF, phosphorylation of GST-cMyc-p53); type: biochemical
T2 construct: Eurofins (contract laboratory that ran the test)
Method: as §1
as §2, with “Human-derived DNA-PK” for “Human-derived ATM”, “containing 50” for “containing 30”

T1 sequence (Q13315 whole entry): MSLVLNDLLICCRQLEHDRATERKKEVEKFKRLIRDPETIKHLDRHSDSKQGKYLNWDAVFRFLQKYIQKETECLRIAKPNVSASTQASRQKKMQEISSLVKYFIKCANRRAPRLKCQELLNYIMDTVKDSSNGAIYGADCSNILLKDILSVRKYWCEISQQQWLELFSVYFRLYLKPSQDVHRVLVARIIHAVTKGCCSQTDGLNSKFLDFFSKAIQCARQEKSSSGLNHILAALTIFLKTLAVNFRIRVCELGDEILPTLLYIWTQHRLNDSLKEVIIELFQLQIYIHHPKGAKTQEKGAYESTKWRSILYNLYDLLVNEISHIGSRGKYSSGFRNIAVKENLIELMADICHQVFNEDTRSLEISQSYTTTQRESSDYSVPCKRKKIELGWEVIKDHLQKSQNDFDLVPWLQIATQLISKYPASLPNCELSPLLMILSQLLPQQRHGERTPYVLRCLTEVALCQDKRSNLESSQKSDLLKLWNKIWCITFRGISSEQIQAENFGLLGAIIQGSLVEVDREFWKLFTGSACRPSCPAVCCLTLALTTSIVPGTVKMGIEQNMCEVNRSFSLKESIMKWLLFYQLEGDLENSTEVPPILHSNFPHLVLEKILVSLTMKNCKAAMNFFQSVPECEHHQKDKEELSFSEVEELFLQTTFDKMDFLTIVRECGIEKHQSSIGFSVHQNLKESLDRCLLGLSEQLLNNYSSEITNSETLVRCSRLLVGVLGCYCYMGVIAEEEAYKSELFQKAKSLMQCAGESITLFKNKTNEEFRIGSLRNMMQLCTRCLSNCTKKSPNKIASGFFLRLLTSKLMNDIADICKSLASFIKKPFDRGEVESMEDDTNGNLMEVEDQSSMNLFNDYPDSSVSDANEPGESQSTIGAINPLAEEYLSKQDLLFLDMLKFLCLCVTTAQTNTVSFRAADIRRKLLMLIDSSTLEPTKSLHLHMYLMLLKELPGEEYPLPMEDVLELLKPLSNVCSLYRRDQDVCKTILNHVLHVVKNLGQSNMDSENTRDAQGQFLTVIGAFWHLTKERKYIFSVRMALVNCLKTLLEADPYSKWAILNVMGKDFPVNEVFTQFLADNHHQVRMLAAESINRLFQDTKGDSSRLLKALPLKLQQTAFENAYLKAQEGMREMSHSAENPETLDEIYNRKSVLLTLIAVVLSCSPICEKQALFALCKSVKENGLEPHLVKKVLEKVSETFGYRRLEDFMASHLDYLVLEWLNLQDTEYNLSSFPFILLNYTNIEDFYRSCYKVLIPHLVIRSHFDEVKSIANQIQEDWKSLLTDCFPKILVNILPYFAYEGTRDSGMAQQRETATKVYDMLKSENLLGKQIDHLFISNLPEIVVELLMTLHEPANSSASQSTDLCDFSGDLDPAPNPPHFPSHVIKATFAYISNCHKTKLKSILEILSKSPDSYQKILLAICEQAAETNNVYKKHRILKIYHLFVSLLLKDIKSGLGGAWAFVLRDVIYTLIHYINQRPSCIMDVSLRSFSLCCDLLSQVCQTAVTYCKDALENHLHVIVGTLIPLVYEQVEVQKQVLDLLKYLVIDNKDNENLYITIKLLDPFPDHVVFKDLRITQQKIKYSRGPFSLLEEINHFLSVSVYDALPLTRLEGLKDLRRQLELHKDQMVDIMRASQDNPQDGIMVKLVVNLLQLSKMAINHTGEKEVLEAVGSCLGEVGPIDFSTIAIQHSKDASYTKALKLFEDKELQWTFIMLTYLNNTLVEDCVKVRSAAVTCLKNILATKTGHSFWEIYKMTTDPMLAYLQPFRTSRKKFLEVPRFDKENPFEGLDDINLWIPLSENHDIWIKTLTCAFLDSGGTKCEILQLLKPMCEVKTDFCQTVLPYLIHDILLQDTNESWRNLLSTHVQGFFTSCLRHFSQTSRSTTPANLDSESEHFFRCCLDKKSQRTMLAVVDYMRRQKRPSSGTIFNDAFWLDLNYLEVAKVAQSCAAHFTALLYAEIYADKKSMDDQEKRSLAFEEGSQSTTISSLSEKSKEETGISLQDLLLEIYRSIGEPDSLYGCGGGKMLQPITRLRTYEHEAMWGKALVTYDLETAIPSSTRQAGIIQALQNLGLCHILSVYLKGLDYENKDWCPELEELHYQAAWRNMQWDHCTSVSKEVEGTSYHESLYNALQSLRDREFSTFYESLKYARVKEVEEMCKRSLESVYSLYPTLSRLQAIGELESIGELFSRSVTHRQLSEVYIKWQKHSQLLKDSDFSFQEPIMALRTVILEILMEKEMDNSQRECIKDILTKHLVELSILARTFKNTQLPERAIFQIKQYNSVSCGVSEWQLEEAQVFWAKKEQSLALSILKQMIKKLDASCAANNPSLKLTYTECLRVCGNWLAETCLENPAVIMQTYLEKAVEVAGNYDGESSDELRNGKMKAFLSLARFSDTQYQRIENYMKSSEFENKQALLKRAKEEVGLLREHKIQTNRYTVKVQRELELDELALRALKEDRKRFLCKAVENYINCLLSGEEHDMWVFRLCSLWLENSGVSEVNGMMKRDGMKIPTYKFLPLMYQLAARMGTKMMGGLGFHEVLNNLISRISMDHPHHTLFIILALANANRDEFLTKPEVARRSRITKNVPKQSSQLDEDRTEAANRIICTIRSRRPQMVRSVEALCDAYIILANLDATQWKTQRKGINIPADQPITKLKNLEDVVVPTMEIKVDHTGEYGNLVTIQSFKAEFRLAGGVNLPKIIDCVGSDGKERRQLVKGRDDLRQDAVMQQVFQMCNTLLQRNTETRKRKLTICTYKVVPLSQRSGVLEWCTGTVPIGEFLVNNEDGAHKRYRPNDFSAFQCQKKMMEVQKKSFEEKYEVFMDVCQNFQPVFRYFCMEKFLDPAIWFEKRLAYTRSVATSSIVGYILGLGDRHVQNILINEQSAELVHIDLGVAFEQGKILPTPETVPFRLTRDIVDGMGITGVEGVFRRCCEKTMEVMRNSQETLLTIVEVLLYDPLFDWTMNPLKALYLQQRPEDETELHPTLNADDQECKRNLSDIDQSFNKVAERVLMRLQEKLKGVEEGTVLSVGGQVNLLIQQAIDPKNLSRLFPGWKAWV

SMILES	Tumor volume (mm^3) ([1]; Day 0 after administration)	Tumor volume (mm^3) ([1]; Day 3 after administration)	Tumor volume (mm^3) ([1]; Day 7 after administration)	Tumor volume (mm^3) ([1]; Day 10 after administration)	Tumor volume (mm^3) ([1]; Day 14 after administration)	Tumor volume (mm^3) ([1]; Day 17 after administration)	Tumor volume (mm^3) ([1]; Day 21 after administration)	T/C (%) tumor proliferation rate [1]	TGI (%) tumor growth inhibition rate [1]	Tumor volume (mm^3) (Day 26) [1]	IC50 [2]	IC50 [3]
COc1cc([C@@H]2c3cc4c(cc3[C@@H](O[C@@H]3O[C@@H]5CO[C@@H](C)O[C@H]5[C@H](O)[C@H]3O)[C@H]3COC(=O)[C@H]23)OCO4)cc(OC)c1O [Etoposide, etoposide, reference compound]	125 ± 8 mm^3	132 ± 11 mm^3	259 ± 37 mm^3	364 ± 47 mm^3	552 ± 66 mm^3	851 ± 84 mm^3	1021 ± 112 mm^3	59.93%	41.95%	1667 ± 193 mm^3		
CN1C(=O)C2(CCOCC2)c2c1cnc1cc(F)c(-c3ccc(OCCCN4CCCCC4)nc3)cc21 [Example 32]	125 ± 7 mm^3	138 ± 6 mm^3	229 ± 10 mm^3	359 ± 36 mm^3	644 ± 83 mm^3	974 ± 129 mm^3	1240 ± 157 mm^3	73.86%	27.36%	2054 ± 221 mm^3	2 nM	561 nM
